Experimental data from PubChem BioAssay AID1963428 (Molecular Pharmacology Branch, DTP, NCI, 2024).
Values joined by “and” are separate entries in the source; they are usually repeats but may differ in a detail not shown here. Identical values can stand only once.

System: 171881-019-R-J1-PDC complex spheroid growth, % test/control
Assay: Anticancer human tumor 171881-019-R-J1-PDC patient-derived invasive breast carcinoma cell line growth inhibition [Asc]
Settings: for viability, T/C: stronger effect = lower value
Experimental: Multicellular complex tumor spheroid response to apoptosis pathway targeting inhibitors Alrizomadlin, Pelcitoclax, and Dasminapant in combination with a variety of drugs and investigational agents in selected tumor cell lines
The MDM2 inhibitor alrizomadlin, the Bcl-2/Bcl-xL inhibitor pelcitoclax, and the IAPs inhibitor dasminapant were evaluated both individually and in combination with standard of care and investigational anticancer small molecules within a complex spheroid model of solid tumors. . Complex spheroids include a stromal component modeled by human endothelial cells (HUVEC) and fibroblasts modeled by human mesenchymal stem cells (MSCs). The concentration ranges selected for each drug and investigational agent were based upon clinically achievable concentrations if the clinical Cmax of the agent was known.
Compounds. The drugs and investigational agents: alrizomadlin (APG-115; NSC831270), pelcitoclax (APG-1252; NSC835773), dasminapant (APG-1387;NSC834197), TAK-243 (NSC785004), copanlisib (NSC809693), olaparib (NSC753686), talazoparib (NSC767125), cobimetinib (NSC 768068), eltanexor (KPT-8602, NSC 794443), abemaciclib (NSC 768073), sotorasib (NSC818433), adagrasib (NSC 831453), MRTX-1133 (NSC 836407), Iadademestat (ORY1001, NSC 806812), and RMC-4630 (NSC839698), were obtained from the NCI Developmental Therapeutics Program Chemical Repository. The FDA-approved anticancer drug set is available from the Developmental Therapeutics Program at https://dtp.cancer.gov/organization/dscb/obtaining/available plates.htm. […] The stock solutions were prepared in dimethyl sulfoxide (DMSO, Sigma-Aldrich, St. Louis, MO, cat. D2650) at 800-fold the tested concentration and stored at -70 degrees C prior to their use. All drugs and investigational agents were tested over a range starting from a high concentration at or near the clinical Cmax and decreasing in half-log increments. If the clinical Cmax for an agent had not been determined, the highest concentration tested was 10 microM.
The patient-derived cancer (PDC) cell lines include five colon adenocarcinomas: 186277-243-T-J2-PDC, 616215-338-R-J1-PDC, 439559-082-T-J2-PDC, 463943-066-T-J2-PDC, and 519858-162-T-J1-PDC; three pancreatic carcinomas: 323965-272-R-J2-PDC, 521955-158-R6-J3-PDC, and 521955-158-R2-J5-PDC; two uterine sarcomas: 327498-152-R-J2-PDC and 993429-296-R-J1-PDC; two rhabdomyosarcomas: 755483-174-R-J1-PDC and 772245-204-R-J1-PDC; two soft tissue sarcomas: 126254-015-R-J1-PDC and 494315-158-R-J1-PDC; two malignant fibrous histiocytomas: 317291-083-R-J1-PDC and 596521-263-R-J1-PDC; two breast carcinomas: 171881-019-R-J1-PDC and 885512-296-R-J2-PDC; and one ovarian carcinoma: 6556581-035-R-J-PDC were obtained from the NCI PDMR, (https://pdmr.cancer.gov). The established cell lines HSSY-2 synovial sarcoma (RRID:CVCL 8719), SYO-1 synovial sarcoma (RRID:CVCL_7146), MPNST malignant peripheral neural sheath tumor were obtained from the Sloan Kettering Institute. The following established cell lines were purchased from the American Type Culture Collection (ATCC, Manassas, VA), Sor the received from the NCI repository:, PANC-1 pancreatic carcinoma (CRL-1469, RRID:CVCL_0480), OVCAR-5 ovarian carcinoma (RRID:CVCL_1628), OVCAR-8 ovarian carcinoma (RRID:CVCL_1629), , MCF-7 breast carcinoma (CRL-12584, RRID:CVCL_0031), MDA-MB-231 breast carcinoma (CRL-12532, RRID:CVCL_0062), NCI-H1876 small cell lung carcinoma (CRL-5902, RRID:CVCL_1503), NCI-H510A small cell lung carcinoma (HTB-184, RRID:CVCL_1565), NCI-H1417 (CRL-5869, RRID:CVCL_1469), and NCI-H196 small cell lung carcinoma (CRL-5823, RRID:CVCL_1509). Dr. Peter Houghton (Greehey Children's Cancer Research Institute, University of Texas Health Science Center, San Antonio, TX) provided Rh-18 rhabdomyosarcoma (RRID:CVCL_1659). Pooled donor human umbilical vein endothelial cells (HUVEC, Lonza, cat. CC-2519) and human mesenchymal stem cells (hMSC, Lonza, cat. PT-2501) were purchased from Lonza (Walkersville, MD).
Cell Culture. […]

[1] = curve of first compound, second compound 0.01 µM
[2] = curve of first compound, second compound 0.0316 µM
[3] = curve of first compound, second compound 0.1 µM
[4] = curve of first compound, second compound 0.316 µM
[5] = curve of first compound, second compound 1 µM
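Throughout, for viability, T/C: spheroids exposed to compounds for 7 days.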

CCN1C(C(=O)NC23CCC(C(=O)O)(CC2)CC3)C(c2cccc(Cl)c2F)C2(C(=O)Nc3cc(Cl)ccc32)C12CCCCC2 (configuration not stated) + CNC(C)C(=O)NC1CN(S(=O)(=O)c2cccc(S(=O)(=O)N3CCC4CCC(C(=O)NC(c5ccccc5)c5ccccc5)N4C(=O)C(NC(=O)C(C)NC)C3)c2)CCC2CCC(C(=O)NC(c3ccccc3)c3ccccc3)N2C1=O
IC50 [1]: > 3 µM
IC50 [2]: > 3 µM
IC50 [3]: > 3 µM
IC50 [4]: > 3 µM
IC50 [5]: > 3 µM
viability, T/C (second compound 0.01 µM, first compound 0.00949 µM): 91%
viability, T/C (second compound 0.01 µM, first compound 0.03 µM): 108%
viability, T/C (second compound 0.01 µM, first compound 0.0949 µM): 117%
viability, T/C (second compound 0.01 µM, first compound 0.3 µM): 109%
viability, T/C (second compound 0.01 µM, first compound 0.949 µM): 110%
viability, T/C (second compound 0.01 µM, first compound 3 µM): 138%
viability, T/C (second compound 0.0316 µM, first compound 0.00949 µM): 109%
viability, T/C (second compound 0.0316 µM, first compound 0.03 µM): 118%
viability, T/C (second compound 0.0316 µM, first compound 0.0949 µM): 104%
viability, T/C (second compound 0.0316 µM, first compound 0.3 µM): 112%
viability, T/C (second compound 0.0316 µM, first compound 0.949 µM): 105%
viability, T/C (second compound 0.0316 µM, first compound 3 µM): 138%
viability, T/C (second compound 0.1 µM, first compound 0.00949 µM): 130%
viability, T/C (second compound 0.1 µM, first compound 0.03 µM): 117%
viability, T/C (second compound 0.1 µM, first compound 0.0949 µM): 104%
viability, T/C (second compound 0.1 µM, first compound 0.3 µM): 111%
viability, T/C (second compound 0.1 µM, first compound 0.949 µM): 117%
viability, T/C (second compound 0.1 µM, first compound 3 µM): 132%
viability, T/C (second compound 0.316 µM, first compound 0.00949 µM): 110%
viability, T/C (second compound 0.316 µM, first compound 0.03 µM): 120%
viability, T/C (second compound 0.316 µM, first compound 0.0949 µM): 91.2%
viability, T/C (second compound 0.316 µM, first compound 0.3 µM): 123%
viability, T/C (second compound 0.316 µM, first compound 0.949 µM): 99%
viability, T/C (second compound 0.316 µM, first compound 3 µM): 132%
viability, T/C (second compound 1 µM, first compound 0.00949 µM): 102%
viability, T/C (second compound 1 µM, first compound 0.03 µM): 110%
viability, T/C (second compound 1 µM, first compound 0.0949 µM): 112%
viability, T/C (second compound 1 µM, first compound 0.3 µM): 101%
viability, T/C (second compound 1 µM, first compound 0.949 µM): 121%
viability, T/C (second compound 1 µM, first compound 3 µM): 132%

Cn1ncnc1[C@H]1c2n[nH]c(=O)c3cc(F)cc(c23)N[C@@H]1c1ccc(F)cc1
viability, T/C (compound 0.000316 µM): 81.3% and 100% and 94.1%
viability, T/C (compound 0.001 µM): 86.7% and 107% and 93%
viability, T/C (compound 0.00316 µM): 90% and 88.5% and 79.2%
viability, T/C (compound 0.01 µM): 92.8% and 101% and 84.1%
viability, T/C (compound 0.0316 µM): 86.6% and 86.8% and 99.6%
viability, T/C (compound 0.1 µM): 91.4% and 81% and 106%
IC50 (curve of compound): > 0.1 µM

C#Cc1c(F)ccc2cc(O)cc(-c3ncc4c(N5CC6CCC(C5)N6)nc(OCC56CCCN5CC(F)C6)nc4c3F)c12 (configuration not stated) + CNC(C)C(=O)NC1CN(S(=O)(=O)c2cccc(S(=O)(=O)N3CCC4CCC(C(=O)NC(c5ccccc5)c5ccccc5)N4C(=O)C(NC(=O)C(C)NC)C3)c2)CCC2CCC(C(=O)NC(c3ccccc3)c3ccccc3)N2C1=O
IC50 [1]: > 10 µM
IC50 [2]: > 10 µM
IC50 [3]: > 10 µM
IC50 [4]: > 10 µM
IC50 [5]: > 10 µM
viability, T/C (second compound 0.01 µM, first compound 0.0316 µM): 98%
viability, T/C (second compound 0.01 µM, first compound 0.1 µM): 116%
viability, T/C (second compound 0.01 µM, first compound 0.316 µM): 125%
viability, T/C (second compound 0.01 µM, first compound 1 µM): 187%
viability, T/C (second compound 0.01 µM, first compound 3.16 µM): 254%
viability, T/C (second compound 0.01 µM, first compound 10 µM): 248%
viability, T/C (second compound 0.0316 µM, first compound 0.0316 µM): 107%
viability, T/C (second compound 0.0316 µM, first compound 0.1 µM): 107%
viability, T/C (second compound 0.0316 µM, first compound 0.316 µM): 131%
viability, T/C (second compound 0.0316 µM, first compound 1 µM): 216%
viability, T/C (second compound 0.0316 µM, first compound 3.16 µM): 261%
viability, T/C (second compound 0.0316 µM, first compound 10 µM): 255%
viability, T/C (second compound 0.1 µM, first compound 0.0316 µM): 105%
viability, T/C (second compound 0.1 µM, first compound 0.1 µM): 122%
viability, T/C (second compound 0.1 µM, first compound 0.316 µM): 134%
viability, T/C (second compound 0.1 µM, first compound 1 µM): 168%
viability, T/C (second compound 0.1 µM, first compound 3.16 µM): 247%
viability, T/C (second compound 0.1 µM, first compound 10 µM): 245%
viability, T/C (second compound 0.316 µM, first compound 0.0316 µM): 102%
viability, T/C (second compound 0.316 µM, first compound 0.1 µM): 109%
viability, T/C (second compound 0.316 µM, first compound 0.316 µM): 109%
viability, T/C (second compound 0.316 µM, first compound 1 µM): 170%
viability, T/C (second compound 0.316 µM, first compound 3.16 µM): 214%
viability, T/C (second compound 0.316 µM, first compound 10 µM): 230%
viability, T/C (second compound 1 µM, first compound 0.0316 µM): 99.3%
viability, T/C (second compound 1 µM, first compound 0.1 µM): 109%
viability, T/C (second compound 1 µM, first compound 0.316 µM): 138%
viability, T/C (second compound 1 µM, first compound 1 µM): 170%
viability, T/C (second compound 1 µM, first compound 3.16 µM): 219%
viability, T/C (second compound 1 µM, first compound 10 µM): 235%
